Measurements from patent publication US8975417B2, “Pyrazolopyrrolidine derivatives and their use in the treatment of disease” (Novartis AG, priority 2013, dated 2015).

How the values were obtained:
THP-1 cells = test: Cell growth inhibition assay (CellTiter-Glo), THP-1; format: cell-based; settings: Homo sapiens, read-out: THP-1 TGI
Outline: (§1)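 Dose-response over 3-fold dilutions from 10 μM; 0.1% DMSO control. Endpoint: CellTiter-Glo ATP signal, background-subtracted and day 0-corrected.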

MV-4-11 cells = test: Cell growth inhibition assay (CellTiter-Glo), MV-4-11; format: cell-based; settings: Homo sapiens, MV4-11, read-out: MV-4-11 TGI
Outline: as §1

K-562 cells = test: Cell growth inhibition assay (CellTiter-Glo), K-562; format: cell-based, human; settings: Homo sapiens, K562, read-out: K-562 TGI
Outline: as §1

[1] = target: nuclear BRD4-NUT foci in HCC2494 NUT midline carcinoma cells (Homo sapiens (Human), UniProt O60885+Q86Y26); test: Nut-foci formation assay; format: cell-based; settings: 24 hours, read-out: HCS Brd4-NUT IC50
Procedure: HCC2494 NUT midline carcinoma cells (expressing BRD4-NUT-fusion) were obtained from the University of Texas Southwestern and cultured in RPMI-1640 medium containing 10% Foetal Calf Serum at 37° C. in a humidified 5% CO2 incubator.
Compound-mediated inhibition of BRD4 activity was monitored by quantification of the number and intensity of nuclear BRD4-NUT foci using automated immunofluorescence microscopy. Briefly, 5000 cells in 20 μL fresh medium were seeded into Poly-D-Lysine-precoated 384-well plates and incubated overnight at 37° C. and 5% CO2, followed by addition of 5 μl medium containing compound dilutions at 5-fold their final intended concentration. Dose-response effects were assessed by 3-fold serial dilutions of the test compound, starting at 10 μM. Following incubation of the cells for 24 hours at 37° C. and 5% CO2, the cells were fixed by incubation with 3.7% formaldehyde for 10 min, followed by immunofluorescence staining using rabbit anti-NUT (Cell Signaling Technologies, Cat#3625) as primary, and AlexaFluor488-labeled goat anti-rabbit (Invitrogen, Cat#A11008) as secondary antibody (latter complemented with 1 μg/mL Hoechst33342 as DNA dye). Assay plates were imaged using the appropriate filter sets on the Cellomics VTi automated fluorescence microscopy platform (ThermoFisher Scientific) and the population average of the number of NUT-foci per nucleus is quantified using the Cellomics Spot Detection BioApplication image analysis algorithm (ThermoFisher Scientific). The effect of a particular test compound concentration on NUT-foci number and intensity is expressed as percentage of the value obtained for cells treated with vehicle only (DMSO, 0.1% final concentration), which was set as 100. Compound concentrations leading to half-maximal (IC50) inhibition of the aforementioned readout parameters were determined using standard four parameter curve fitting.

His-Brd4(44-477) = His-Brd4(44-477) (Homo sapiens (Human), UniProt O60885); test: TR-FRET in-vitro binding assay for BRD4; settings: biochemical
Outline: (§2)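 Eight-point dilution series tested against in-house His-BRD2(60-472), BRD3(20-477) or BRD4(44-477) (45 nM in dispensed solution) binding acetyl-histone H4 (AcK5,8,12,16; 60 nM in dispensed solution). Incubation 35 min at 30 °C, pH 7.5 HEPES buffer; detection by TR-FRET using Eu-anti-His6 and streptavidin-allophycocyanin.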

[2] = target: His-CREBBP (1081-1197) bromodomain (Homo sapiens (Human), UniProt Q92793); test: AlphaScreen in-vitro binding assay for CREBBP; settings: biochemical
Outline: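 Ni-chelate acceptor and streptavidin donor beads (45 µg/mL each, in 50 mM HEPES pH 7.5, 150 mM NaCl, 0.02% BSA) were then added for 60 min at room temperature. IC50 came from 8-point non-linear regression.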

His-Brd2(60-472) = His-Brd2(60-472) (Homo sapiens (Human), UniProt P25440); test: TR-FRET in-vitro binding assay for BRD2; settings: biochemical
Outline: as §2

His-Brd3(20-477) = His-Brd3(20-477) (Homo sapiens (Human), UniProt Q15059); test: TR-FRET in-vitro binding assay for BRD3; settings: biochemical
Outline: as §2

His-CREBBP (1081-1197) bromodomain, sequence (Q92793 1081-1197): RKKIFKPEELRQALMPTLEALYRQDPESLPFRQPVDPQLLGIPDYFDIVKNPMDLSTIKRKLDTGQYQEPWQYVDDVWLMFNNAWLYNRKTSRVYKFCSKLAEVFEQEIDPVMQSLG
His-Brd2(60-472), sequence (P25440 60-472): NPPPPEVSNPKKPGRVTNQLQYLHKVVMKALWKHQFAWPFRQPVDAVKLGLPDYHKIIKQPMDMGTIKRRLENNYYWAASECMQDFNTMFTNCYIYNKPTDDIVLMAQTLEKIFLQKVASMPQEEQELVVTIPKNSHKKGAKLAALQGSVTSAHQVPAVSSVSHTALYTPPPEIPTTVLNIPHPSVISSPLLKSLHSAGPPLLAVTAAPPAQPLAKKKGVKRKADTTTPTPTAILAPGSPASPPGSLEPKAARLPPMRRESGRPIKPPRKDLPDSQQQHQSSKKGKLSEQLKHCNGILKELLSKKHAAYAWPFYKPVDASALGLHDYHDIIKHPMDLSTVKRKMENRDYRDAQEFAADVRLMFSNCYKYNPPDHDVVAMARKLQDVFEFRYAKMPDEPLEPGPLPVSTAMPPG
His-Brd3(20-477), sequence (Q15059 20-477): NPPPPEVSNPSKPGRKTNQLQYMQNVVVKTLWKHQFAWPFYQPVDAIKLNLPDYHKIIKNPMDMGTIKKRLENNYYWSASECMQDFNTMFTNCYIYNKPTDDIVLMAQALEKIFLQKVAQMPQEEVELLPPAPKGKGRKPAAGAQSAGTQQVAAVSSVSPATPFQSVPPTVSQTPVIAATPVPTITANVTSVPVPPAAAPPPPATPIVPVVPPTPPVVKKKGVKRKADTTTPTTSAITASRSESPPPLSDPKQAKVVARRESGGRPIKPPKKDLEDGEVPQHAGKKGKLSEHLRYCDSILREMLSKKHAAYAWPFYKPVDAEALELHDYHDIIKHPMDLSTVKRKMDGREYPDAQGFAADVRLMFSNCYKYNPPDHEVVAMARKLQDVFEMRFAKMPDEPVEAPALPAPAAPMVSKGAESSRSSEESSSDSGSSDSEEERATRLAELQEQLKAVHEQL

| IC50 [1] [nM] | IC50 (His-Brd4(44-477)) [nM] | IC50 [2] [nM] | IC50 (His-Brd2(60-472)) [nM] | IC50 (His-Brd3(20-477)) [nM] | SMILES | IC (total growth inhibition) (THP-1 cells) [µM] | IC (total growth inhibition) (MV-4-11 cells) [µM] | IC (total growth inhibition) (K-562 cells) [µM] |
| --- | --- | --- | --- | --- | --- | --- | --- | --- |
| 38.4 |  |  |  |  | CCc1nn(CCOC)c2c1C(c1ccc(Cl)cc1)N(c1cc(C)c(=O)n(C)c1)C2=O (centres unmarked) [Example 86, 4-(4-chlorophenyl)-5-(1,5-dimethyl-6-oxo-1,6-dihydropyridin-3-yl)-3-ethyl-1-(2-methoxyethyl)-4,5-dihydropyrrolo[3,4-c]pyrazol-6(1H)-one] | 0.123 | 0.0548 | > 10 |
| 736 |  |  |  |  | Cc1nn(C2CC2)c2c1C(c1cccc(OC(F)(F)F)c1)N(c1cc(C)c(=O)n(C)c1)C2=O (centres unmarked) [Example 91, 1-cyclopropyl-5-(1,5-dimethyl-6-oxo-1,6-dihydropyridin-3-yl)-3-methyl-4-(3-(trifluoromethoxy)phenyl)-4,5-dihydropyrrolo[3,4-c]pyrazol-6(1H)-one] | 1.44 | 0.978 | > 10 |
|  | 100 | > 37000 | 120 | 90 | Cc1nn(C2CC2)c2c1C(c1ccc(F)cc1F)N(c1cc(C)c3nnc(C)n3c1)C2=O (centres unmarked) [Example 176, 1-cyclopropyl-4-(2,4-difluorophenyl)-5-(3,8-dimethyl-[1,2,4]triazolo[4,3-a]pyridin-6-yl)-3-methyl-4,5-dihydropyrrolo[3,4-c]pyrazol-6(1H)-one] | 0.106 | 0.0631 | > 10 |
|  | 66 | 32000 | 68 | 62 | Cc1nn(C2CC2)c2c1C(c1ccc(Cl)cc1F)N(c1cc(C)c3nnc(C)n3c1)C2=O (centres unmarked) [Example 178, 4-(4-chloro-2-fluorophenyl)-1-cyclopropyl-5-(3,8-dimethyl-[1,2,4]triazolo[4,3-a]pyridin-6-yl)-3-methyl-4,5-dihydropyrrolo[3,4-c]pyrazol-6(1H)-one] | 0.107 | 0.0491 | > 10 |
|  | 95 | 3900 | 92 | 90 | Cc1nn(C2CC2)c2c1C(c1ccc(Cl)cc1F)N(c1cc(C)c(=O)n(C)c1)C2=O (centres unmarked) [Example 179, 4-(4-chloro-2-fluorophenyl)-1-cyclopropyl-5-(1,5-dimethyl-6-oxo-1,6-dihydropyridin-3-yl)-3-methyl-4,5-dihydropyrrolo[3,4-c]pyrazol-6(1H)-one] | 0.272 | 0.12 | > 10 |
|  | 83 | 2400 | 89 | 71 | Cc1nn(C(C)C)c2c1C(c1ccc(Cl)cc1F)N(c1cc(C)c(=O)n(C)c1)C2=O (centres unmarked) [Example 180, 4-(4-chloro-2-fluorophenyl)-5-(1,5-dimethyl-6-oxo-1,6-dihydropyridin-3-yl)-1-isopropyl-3-methyl-4,5-dihydropyrrolo[3,4-c]pyrazol-6(1H)-one] | 0.186 | 0.108 | > 10 |
|  | 34 | > 37000 | 62 | 40 | CCn1nc(C)c2c1C(=O)N(c1cc(C)c3nnc(C)n3c1)C2c1ccc(F)cc1F (centres unmarked) [Example 181, 4-(2,4-difluorophenyl)-5-(3,8-dimethyl-[1,2,4]triazolo[4,3-a]pyridin-6-yl)-1-ethyl-3-methyl-4,5-dihydropyrrolo[3,4-c]pyrazol-6(1H)-one] | 0.117 | 0.0886 | > 10 |
|  | 46 | 27000 | 120 | 51 | CCn1nc2c(c1C)C(c1ccc(F)cc1F)N(c1cc(C)c3nnc(C)n3c1)C2=O (centres unmarked) [Example 182, 4-(2,4-difluorophenyl)-5-(3,8-dimethyl-[1,2,4]triazolo[4,3-a]pyridin-6-yl)-2-ethyl-3-methyl-4,5-dihydropyrrolo[3,4-c]pyrazol-6(2H)-one] | 0.217 | 0.12 | > 10 |
|  | 29 | 24000 | 47 | 36 | COc1ncccc1-n1nc(C)c2c1C(=O)N(c1cc(C)c3nnc(C)n3c1)C2c1ccc(Cl)cc1F (centres unmarked) [Example 184, 4-(4-chloro-2-fluorophenyl)-5-(3,8-dimethyl-[1,2,4]triazolo[4,3-a]pyridin-6-yl)-1-(2-methoxypyridin-3-yl)-3-methyl-4,5-dihydropyrrolo[3,4-c]pyrazol-6(1H)-one] | 0.337 | 0.136 | > 10 |
|  | < 37 | 14200 | 71 | 36 | CCn1nc(C)c2c1C(=O)N(c1cc(C)c3nnc(C)n3c1)C2c1ccc(Cl)cc1F (centres unmarked) [Example 185, 4-(4-chloro-2-fluorophenyl)-5-(3,8-dimethyl-[1,2,4]triazolo[4,3-a]pyridin-6-yl)-1-ethyl-3-methyl-4,5-dihydropyrrolo[3,4-c]pyrazol-6(1H)-one] | 0.0877 | 0.0427 | > 10 |
|  | 69 | 6100 | 140 | 61 | CCn1nc2c(c1C)C(c1ccc(Cl)cc1F)N(c1cc(C)c3nnc(C)n3c1)C2=O (centres unmarked) [Example 186, 4-(4-chloro-2-fluorophenyl)-5-(3,8-dimethyl-[1,2,4]triazolo[4,3-a]pyridin-6-yl)-2-ethyl-3-methyl-4,5-dihydropyrrolo[3,4-c]pyrazol-6(2H)-one] | 0.145 | 0.0882 | > 10 |
|  | 29 | 3800 | 40 | 33 | Cc1nn(C(C)C)c2c1[C@@H](c1ccc(Cl)cc1F)N(c1cc(C)c3nnc(C)n3c1)C2=O [Example 189, (S)-4-(4-chloro-2-fluorophenyl)-5-(3,8-dimethyl-[1,2,4]triazolo[4,3-a]pyridin-6-yl)-1-isopropyl-3-methyl-4,5-dihydropyrrolo[3,4-c]pyrazol-6(1H)-one] | 0.0261 | 0.0269 | > 10 |
|  | 45 | 5200 | 90 | 65 | COc1ncccc1-n1nc2c(c1C)C(c1ccc(Cl)cc1F)N(c1cc(C)c3nnc(C)n3c1)C2=O (centres unmarked) [Example 194, 4-(4-chloro-2-fluorophenyl)-5-(3,8-dimethyl-[1,2,4]triazolo[4,3-a]pyridin-6-yl)-2-(2-methoxypyridin-3-yl)-3-methyl-4,5-dihydropyrrolo[3,4-c]pyrazol-6(2H)-one] | 0.174 | 0.0936 | > 10 |
|  | < 11 | > 37000 | 20 | 16 | Cc1nn(C2CC2)c2c1C(c1ccc(Cl)cc1)N(c1cc(C)c3nnc(C(F)F)n3n1)C2=O (centres unmarked) [Example 195, 4-(4-chlorophenyl)-1-cyclopropyl-5-(3-(difluoromethyl)-8-methyl-[1,2,4]triazolo[4,3-b]pyridazin-6-yl)-3-methyl-4,5-dihydropyrrolo[3,4-c]pyrazol-6(1H)-one] | 0.0804 | 0.0452 | > 10 |
